Tests used:
human V2 receptor [1] = molecular target: T1, human V2 receptor (Homo sapiens, UniProt P30518); assay: V2 binding assay (3H-AVP displacement, HEK-293 membranes); parameters: expressed in transfected cells; host or cells: HEK-293 (membranes); conditions: for inhibition at 1 µM: 1.0 μM compound, read-out: V2@1.0, % Inh; for inhibition at 10 µM: 10 μM compound, read-out: V2 % Inh @10
Outline: (§1)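 Read-out is filter-retained 3H-AVP, counted by scintillation after washing with cold saline/0.05% Tween 20. Binding ran 1 hour at room temperature in pH 7.5 buffer with protease inhibitors; 1.25 μM unlabelled AVP gave non-specific binding.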

NPY2 receptors = molecular target: T2, NPY2 receptors (Homo sapiens, UniProt P49146); assay: Neuropeptide Y receptor binding assay (125I-PYY, KAN-TS cell membranes); conditions: 10 μM compound; read-out: NPY-2@10, % Inh
T2 construct: Cell Membranes from KAN-TS cells having NPY2 receptors; endogenous in cells; host or cells: KAN-TS cells (membranes)
T2 sequence (P49146 1-381): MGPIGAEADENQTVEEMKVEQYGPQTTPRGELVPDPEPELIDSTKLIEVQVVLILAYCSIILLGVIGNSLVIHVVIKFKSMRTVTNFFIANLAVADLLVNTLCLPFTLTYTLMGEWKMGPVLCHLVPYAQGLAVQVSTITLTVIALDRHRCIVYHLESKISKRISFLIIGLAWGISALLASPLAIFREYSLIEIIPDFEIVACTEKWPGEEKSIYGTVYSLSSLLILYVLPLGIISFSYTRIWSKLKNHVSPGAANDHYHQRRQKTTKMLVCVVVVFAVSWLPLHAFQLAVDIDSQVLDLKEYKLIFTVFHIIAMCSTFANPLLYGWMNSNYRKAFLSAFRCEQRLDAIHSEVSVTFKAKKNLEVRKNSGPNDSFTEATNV
Outline: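 Membranes from KAN-TS cells competed with 125I-PYY in binding buffer containing BSA, test compound at 10 μM final, 1 hr at room temperature. Nonspecific binding defined with 1 μM PYY final. Tubes centrifuged, washed with PBS and bound radioactivity gamma-counted.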

human V1b receptor [2] = molecular target: T3, human V1b receptor (Homo sapiens, UniProt P47901); assay: V1b binding assay (3H-AVP displacement, HEK-293 membranes); parameters: expressed in transfected cells; host or cells: HEK-293 (membranes); conditions: 10 μM compound; read-out: V1b % Inh @10
T3 sequence (P47901 1-424): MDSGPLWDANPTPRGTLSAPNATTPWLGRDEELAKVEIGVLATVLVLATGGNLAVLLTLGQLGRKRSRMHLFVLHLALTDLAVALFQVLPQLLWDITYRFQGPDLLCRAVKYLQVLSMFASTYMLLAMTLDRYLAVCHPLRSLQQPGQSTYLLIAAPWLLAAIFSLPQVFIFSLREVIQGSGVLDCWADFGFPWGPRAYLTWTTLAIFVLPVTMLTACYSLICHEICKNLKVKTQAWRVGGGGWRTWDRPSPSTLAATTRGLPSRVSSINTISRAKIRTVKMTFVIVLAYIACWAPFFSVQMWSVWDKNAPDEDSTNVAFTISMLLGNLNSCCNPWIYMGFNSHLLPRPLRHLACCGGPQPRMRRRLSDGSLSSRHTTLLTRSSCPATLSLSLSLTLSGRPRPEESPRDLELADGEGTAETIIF
Outline: as §1

human V1a receptor [3] = molecular target: T4, human V1a receptor (Homo sapiens, UniProt P37288); assay: V1a binding assay (3H-AVP displacement, HEK-293 membranes); parameters: expressed in transfected cells; host or cells: HEK-293 (membranes); conditions: for inhibition at 1 µM: 1.0 μM compound, read-out: V1a@1.0, % Inh
Outline: as §1

human V1b receptor [4] = molecular target: T3, human V1b receptor; assay: V1b functional assay, intracellular calcium mobilization in transfected HEK-293 cells (FLIPR); format: cell-based; parameters: expressed in transfected cells; host or cells: HEK-293; conditions: HEK293; 30 μM compound; read-out: Cell-Based Functional activity V1b % Inh. @ 30
Method: (§2) V1a, V1b or V2 Functional Assay
(§3) HEK-293 cells were grown in DMEM media supplemented with 10% FBS and glutamine (Gibco BRL, Grand Island, N.Y.). Once transfected the cells were passed biweekly by trypsinization and seeded into 96 well plates at 33,000 cells per well. HEK-293 were transfected with human V1a, V1b or V2 DNA using DMRIE-C reagent from Life Technologies, Inc., Grand Island, N.Y. Cells were tested for their responsiveness to vasopressin 48 hours after transfection. Stable lines were generated by selecting cells grown in culture media containing geneticin (500 μg/ml, Life Technologies).
(§4) Intracellular calcium mobilization was measured in HEK-293 cells transfected to express either human V1a, oxytocin or V1b receptors. Cells were plated into black 96-well Packard Clear-View plates 4 to 7 days prior to use. The cells were loaded with fluo-3 AM (Molecular Probes, Inc., Eugene, Oreg.) in buffer (25 mM Hepes, 125 mM NaCl, 1 gm/l glucose, 0.1% BSA, 5 mM KCl, 0.5 mM CaCl2, 0.5 mM MgCl2, pH 7.45) containing Pluronic (Molecular Probes) Cells were incubated with 5 μM fluo-3 AM for 1 hour shielded from light at room temperature. Intracellular fluorescence was measured using FLIPR (fluorometric imaging plate reader; Molecular Devices, Inc., Sunnyvale, Calif.). The FLIPR protocol called for images to be collected at one second intervals with 50 μl of the test compound added after the initial 10 images. An additional 70 images were then taken to detect any compound agonistic activity. FLIPR then added 50 μl of agonist peptide and collected a final 40 images for quantitating compound antagonistic activity. V1a- and V1b-expressing HEK cells were challenged with 1 nM and 0.5 nM AVP, respectively. Oxytocin-expressing HEK cells were challenged with 0.5 nM oxytocin (Peninsula Labs).
(§5) The data from the cAMP accumulation and the calcium mobilization assays are expressed as IC50 values as determined from dose response curves.

human V1a receptor [5] = molecular target: T4, human V1a receptor; assay: V1a functional assay, intracellular calcium mobilization in transfected HEK-293 cells (FLIPR); parameters: expressed in transfected cells; host or cells: HEK-293; conditions: challenge 1 nM AVP; read-out: Cell-Based Functional activity V1a IC50
Method: as §2, §3, §4, §5

human V2 receptor [6] = molecular target: T1, human V2 receptor; assay: V2 functional assay, cAMP accumulation in transfected HEK-293 cells; format: cell-based; parameters: expressed in transfected cells; host or cells: HEK-293; conditions: HEK293; 30 μM compound; read-out: Cell-Based Functional activity V2 % Inh. @ 30
Method: as §2, §3
The accumulation of cAMP was measured in transfected HEK-293 expressing the human V2 receptor. The cells were cultured 4-7 days in 96-well plates. On the day of assay, cells were washed twice in assay media (DMEM/F12 containing 0.1% BSA). The cells were treated with the test compound for 5 minutes and then given AVP (1 nM) in assay media containing 1 mM isobutylmethylxanthine. After 5 minutes, 0.5 N HCl was added to disrupt the cells and solubilize cAMP. The cAMP content of 20 μl of the cell lysate in each well was measured using cAMP Flashplates (NEN Life Sciences). Data are expressed as pmol cAMP/well. While the assay is optimized to detect and quantitate antagonistic activity, agonistic activity would also be apparent at the higher concentrations of test compounds.
as §5

human V1a receptor [7] = molecular target: T4, human V1a receptor; parameters: expressed in transfected cells; host or cells: HEK-293; conditions: stated in literature; cited from earlier work
V1a = V1a (Rattus norvegicus, UniProt P30560); conditions: stated in literature; cited from earlier work
Chain of V1a (P30560 whole entry): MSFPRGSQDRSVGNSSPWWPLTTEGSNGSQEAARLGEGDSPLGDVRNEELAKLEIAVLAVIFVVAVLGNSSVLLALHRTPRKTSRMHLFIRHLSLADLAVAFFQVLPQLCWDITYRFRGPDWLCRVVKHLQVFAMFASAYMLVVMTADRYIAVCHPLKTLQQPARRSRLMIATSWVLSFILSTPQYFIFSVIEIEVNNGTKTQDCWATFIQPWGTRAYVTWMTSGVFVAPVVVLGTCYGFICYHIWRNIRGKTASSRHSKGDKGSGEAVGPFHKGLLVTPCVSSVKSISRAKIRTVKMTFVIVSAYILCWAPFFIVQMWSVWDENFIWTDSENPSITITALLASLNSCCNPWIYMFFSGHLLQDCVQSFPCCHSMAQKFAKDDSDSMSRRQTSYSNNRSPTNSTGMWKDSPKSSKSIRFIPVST

T1 sequence (P30518 whole entry): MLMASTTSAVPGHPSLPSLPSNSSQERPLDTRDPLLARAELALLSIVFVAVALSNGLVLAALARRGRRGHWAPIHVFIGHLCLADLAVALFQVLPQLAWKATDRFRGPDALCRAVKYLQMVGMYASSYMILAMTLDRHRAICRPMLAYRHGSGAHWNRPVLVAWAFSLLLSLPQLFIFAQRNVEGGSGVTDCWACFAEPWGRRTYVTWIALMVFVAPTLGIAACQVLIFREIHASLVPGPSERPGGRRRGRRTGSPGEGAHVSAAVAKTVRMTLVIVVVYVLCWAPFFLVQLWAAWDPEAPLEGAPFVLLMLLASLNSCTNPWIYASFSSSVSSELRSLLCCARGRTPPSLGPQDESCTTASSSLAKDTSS
T4 sequence (P37288 whole entry): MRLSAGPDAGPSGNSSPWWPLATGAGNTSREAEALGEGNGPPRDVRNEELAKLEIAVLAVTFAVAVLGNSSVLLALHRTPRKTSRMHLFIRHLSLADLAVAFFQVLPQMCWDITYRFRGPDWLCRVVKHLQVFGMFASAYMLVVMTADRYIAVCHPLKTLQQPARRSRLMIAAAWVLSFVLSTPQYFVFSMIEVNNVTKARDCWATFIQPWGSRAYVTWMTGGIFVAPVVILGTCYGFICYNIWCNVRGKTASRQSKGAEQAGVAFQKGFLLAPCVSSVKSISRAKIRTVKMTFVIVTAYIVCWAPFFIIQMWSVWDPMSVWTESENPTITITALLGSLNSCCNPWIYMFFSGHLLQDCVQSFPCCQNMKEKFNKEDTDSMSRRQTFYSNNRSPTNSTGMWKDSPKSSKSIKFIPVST

Row | Compound | melting point [°C] | inhibition at 1 µM (human V2 receptor [1]) [%] | inhibition at 10 µM (NPY2 receptors) [%] | inhibition at 10 µM (human V1b receptor [2]) [%] | inhibition at 1 µM (human V1a receptor [3]) [%] | inhibition at 10 µM (human V2 receptor [1]) [%] | IC50 (human V1a receptor [3]) [nM] | inhibition at 30 µM (human V1b receptor [4]) [%] | IC50 (human V1a receptor [5]) [nM] | inhibition at 30 µM (human V2 receptor [6]) [%] | activity when tested for binding to human V1a receptor (human V1a receptor [7]) | activity in rat (V1a)
1 | O=c1[nH]c2ccccc2n1C1CCN(C(=S)NCCc2ccc(Cl)cc2)CC1 [Compound 2] | 234 to 236 | 7 | 1 | 0 | 21 | – | – | – | – | – | – | –
2 | O=c1[nH]c2ccccc2n1C1CCN(C(=S)Nc2ccccc2)CC1 [Compound 3] | 250 to 252 | 7 | 13 | 0 | 0 | – | – | – | – | – | – | –
3 | COc1ccc(NC(=S)N2CCC(n3c(=O)[nH]c4ccccc43)CC2)cc1 [Compound 5] | 238 to 243 | 34 | 14 | 8 | 38 | – | – | – | – | – | – | –
4 | O=c1[nH]c2ccccc2n1C1CCN(C(=S)NCc2ccccc2Cl)CC1 [Compound 12] | 181 to 184 | – | 21 | 0 | – | 5 | 2500 | – | – | – | – | –
5 | O=c1[nH]c2ccccc2n1C1CCN(C(=S)NCC(c2ccccc2)c2ccccc2)CC1 [Compound 13] | 230 to 233 | – | 22 | 1 | – | 4 | 1200 | – | – | – | – | –
6 | COC(=O)[C@@H](Cc1ccccc1)NC(=S)N1CCC(n2c(=O)n(CCCNC(=N)N)c3ccccc32)CC1 [Compound 58] | – | – | 2 | – | 52 | – | – | 0 | 1430 | 0 | – | –
7 | CC(=O)NCCCOc1ccc(C(=O)N2CCC(N3C(=O)CCc4ccccc43)CC2)cc1 [OPC 21268] | – | – | – | – | – | – | – | – | – | – | no activity | only active in rat

Source: patent US6653478B2, “Substituted benzimidazol-2-ones as vasopressin receptor antagonists and neuropeptide Y modulators” (Ortho-McNeil Pharmaceutical, Inc., priority 2000, dated 2003)
